Results from ChEMBL document CHEMBL6087460, “Generating a Peptide Library Using the Repeats of Amino Acid Scaffolds Created by Sliding the Framework of a 7-mer Human Chemerin Segment and Discovery of Potent Antibacterial and Antimycobacterial Peptides” (J Med Chem, 2025).
Active and inactive are the calls of the source. No cut-off for these calls is given here.

Tests used:
[1] = system: Staphylococcus aureus; assay: Bactericidal activity against Staphylococcus aureus ATCC 25923 incubated for 16 to 18 hrs; type: functional; settings: time 16-18 hrs
[2] = system: Escherichia coli; assay: Antibacterial activity against Escherichia coli ATCC 25922 incubated for 16 to 18 hrs in presence of 10 percent human serum by broth dilution assay; type: functional; settings: time 16-18 hrs
[3] = system: Escherichia coli; assay: Disruption of membrane integrity in Escherichia coli ATCC 25922 by PI staining based analysis; type: functional, organism-based
[4] = system: Escherichia coli; assay: Disruption of plasma membrane integrity in Escherichia coli ATCC 25922 by SYTOX-Green uptake assay; type: functional, organism-based
[5] = Cytotoxicity against mouse 3T3-L1 cells assessed as cell viability at 100 uM incubated for 24 hrs by MTT assay relative to control; type: toxicity, cell-based; settings: 3T3-L1 cells, read-out: Activity
[6] = system: Staphylococcus aureus; assay: Induction of cell membrane damage in Staphylococcus aureus ATCC 25923 at 3 times MIC incubated for 60 mins by SEM analysis; type: functional, organism-based
[7] = system: Staphylococcus aureus; assay: Antibacterial activity against Staphylococcus aureus ATCC 25923 incubated for 16 to 18 hrs in presence of 10 percent human serum by broth dilution assay; type: functional; settings: time 16-18 hrs
[8] = system: Staphylococcus aureus; assay: Antibacterial activity against Staphylococcus aureus ATCC 25923 incubated for 16 to 18 hrs by broth dilution assay; type: functional; settings: time 16-18 hrs
[9] = Hemolytic activity in human RBC measured after 40 mins by absorbance based assay; type: toxicity, cell-based, Erythrocyte; settings: human red blood cells
[10] = system: Escherichia coli; assay: Bactericidal activity against Escherichia coli ATCC 25922 at MIC incubated for about 100 mins by time kill assay relative to control; type: functional; settings: 1.667 h
[11] = system: Staphylococcus aureus; assay: Bactericidal activity against Staphylococcus aureus ATCC 25923 at MIC incubated for about 135 mins by time kill assay relative to control; type: functional; settings: 2.25 h
[12] = system: Staphylococcus aureus; assay: Disruption of membrane integrity in Staphylococcus aureus ATCC 25923 by PI staining based analysis; type: functional, organism-based
[13] = system: Mycolicibacterium smegmatis; assay: Antitubercular activity against Mycobacterium smegmatis incubated for 24 hrs by rezasurin dye based assay; type: functional
[14] = system: Escherichia coli; assay: Antibacterial activity against Escherichia coli ATCC 25922 incubated for 16 to 18 hrs by broth dilution assay; type: functional; settings: time 16-18 hrs
[15] = system: Escherichia coli; assay: Induction of cell membrane damage in Escherichia coli ATCC 25922 at 3 times MIC incubated for 60 mins by SEM analysis; type: functional, organism-based
[16] = system: Bacillus subtilis; assay: Antibacterial activity against Bacillus subtilis 6633 incubated for 16 to 18 hrs by broth dilution assay; type: functional; settings: time 16-18 hrs
[17] = system: Staphylococcus aureus; assay: Induction of membrane depolarization in Staphylococcus aureus ATCC 25923 by diSC3-5 dye based analysis; type: functional, organism-based
[18] = system: Klebsiella pneumoniae; assay: Antibacterial activity against Klebsiella pneumoniae ATCC 27736 incubated for 16 to 18 hrs by broth dilution assay; type: functional; settings: time 16-18 hrs
[19] = system: Escherichia coli; assay: Bactericidal activity against Escherichia coli ATCC 25922 incubated for 16 to 18 hrs; type: functional; settings: time 16-18 hrs
[20] = system: Staphylococcus aureus; assay: Antibacterial activity against methicillin-resistant Staphylococcus aureus BAA-44 incubated for 16 to 18 hrs by broth dilution assay; type: functional; settings: time 16-18 hrs
[21] = Cytotoxicity against rat L6 cells assessed as cell viability at 100 uM incubated for 24 hrs by MTT assay relative to control; type: toxicity, cell-based; settings: L6 cells, read-out: Activity
[22] = system: Staphylococcus aureus; assay: Antibacterial activity against methicillin-resistant Staphylococcus aureus 33591 incubated for 16 to 18 hrs by broth dilution assay; type: functional; settings: time 16-18 hrs
[23] = system: Staphylococcus aureus; assay: Disruption of plasma membrane integrity in Staphylococcus aureus ATCC 25923 by SYTOX-Green uptake assay; type: functional, organism-based
[24] = Hemolytic activity in human RBC assessed as disruption of membrane integrity by Alexa Fluor-Annexin V staining based analysis; type: toxicity, cell-based; settings: erythrocyte
[25] = Retention time of compound by RP-HPLC method; type: physicochemical
[26] = system: Escherichia coli; assay: Induction of membrane depolarization in Escherichia coli ATCC 25922 by diSC3-5 dye based analysis; type: functional, organism-based
[27] = system: Pseudomonas aeruginosa; assay: Antibacterial activity against Pseudomonas aeruginosa ATCC BAA-427 incubated for 16 to 18 hrs by broth dilution assay; type: functional; settings: time 16-18 hrs
[28] = Toxicity in BALB/c mouse infected with Mycobacterium bovis BCG assessed as animal survival at 2.5 to 5 mg/kg, iv administered once a day for 2 weeks; type: organism-based; settings: in vivo, 336 h, dose 2.5-5 mg/kg
[29] = system: Mycolicibacterium smegmatis; assay: Disruption of cell membrane integrity in Mycobacterium smegmatis incubated for 2 hrs by EtBr uptake assay; type: functional, organism-based
[30] = system: Staphylococcus aureus; assay: Induction of resistance development in methicillin-resistant Staphylococcus aureus 33591 assessed as fold increase in MIC at sub-MIC measured after 30 passages relative to control; type: functional
[31] = system: Escherichia coli; assay: Induction of resistance development in Escherichia coli ATCC 25922 assessed as fold increase in MIC at sub-MIC measured after 30 passages relative to control; type: functional
[32] = Toxicity in BALB/c mouse infected with Escherichia coli ATCC 25922 assessed as animal survival at 2.5 mg/kg, iv administered thrice at 1,3 and 5 hrs post-infection measured after 7 days; type: organism-based; settings: in vivo, 168 h, time 7 day
[33] = system: Escherichia coli; assay: Antibacterial activity against Escherichia coli ATCC 25922 infected in BALB/c mouse assessed as bacterial count in spleen at 5 mg/kg, iv administered thrice at 1,3 and 5 hrs post-infection measured after 24 hrs post-last dose (Rvb ~ 1.9 x10^7 CFU/mL); type: functional; settings: time 29 hrs
[34] = system: Escherichia coli; assay: Antibacterial activity against Escherichia coli ATCC 25922 infected in BALB/c mouse assessed as bacterial count in blood at 5 mg/kg, iv administered thrice at 1,3 and 5 hrs post-infection measured after 24 hrs post-last dose (Rvb ~ 9.6 x10^6 CFU/mL); type: functional; settings: time 29 hrs
[35] = system: Escherichia coli; assay: Antibacterial activity against Escherichia coli ATCC 25922 infected in BALB/c mouse assessed as bacterial count in liver at 5 mg/kg, iv administered thrice at 1,3 and 5 hrs post-infection measured after 24 hrs post-last dose (Rvb ~ 2.3 x10^7 CFU/mL); type: functional; settings: time 29 hrs
[36] = system: Escherichia coli; assay: Bactericidal activity against Escherichia coli ATCC 25922 at MIC incubated for 45 mins by time kill assay; type: functional, organism-based
[37] = system: Staphylococcus aureus; assay: Induction of resistance development in methicillin-resistant Staphylococcus aureus BAA-44 assessed as fold increase in MIC at sub-MIC measured after 30 passages relative to control; type: functional
[38] = system: Staphylococcus aureus; assay: Bactericidal activity against Staphylococcus aureus ATCC 25923 at MIC incubated for 30 mins by time kill assay; type: functional, organism-based
[39] = Toxicity in BALB/c mouse assessed as change in AST level at 15 mg/kg, iv administered thrice at 2 hrs interval measured after 7 days; type: organism-based; settings: in vivo, 168 h, time 7 day
[40] = system: Escherichia coli; assay: Antibacterial activity against Escherichia coli ATCC 25922 infected in BALB/c mouse assessed as bacterial load in blood at 5 mg/kg, iv administered thrice at 1,3 and 5 hrs post-infection measured after 24 hrs post-last dose (Rvb ~ 4 x10^6 CFU/mL); type: functional; settings: time 29 hrs
[41] = Toxicity in BALB/c mouse infected with Escherichia coli ATCC 25922 assessed as animal survival at 5 mg/kg, iv administered thrice at 1,3 and 5 hrs post-infection measured after 7 days; type: organism-based; settings: in vivo, 168 h, time 7 day
[42] = Toxicity in BALB/c mouse assessed as change in ALT level at 15 mg/kg, iv administered thrice at 2 hrs interval measured after 7 days; type: organism-based; settings: in vivo, 168 h, time 7 day
[43] = system: Staphylococcus aureus; assay: Induction of resistance development in Staphylococcus aureus ATCC 25923 assessed as fold increase in MIC at sub-MIC measured after 30 passages relative to control; type: functional
[44] = system: Escherichia coli; assay: Bactericidal activity against Escherichia coli ATCC 25922 at MIC incubated for 30 mins by time kill assay; type: functional, organism-based
[45] = Toxicity in BALB/c mouse assessed as animal survival at 15 mg/kg, iv administered thrice at 2 hrs interval measured after 7 days; type: organism-based; settings: in vivo, 168 h, time 7 day
[46] = Toxicity in mouse assessed as animal survival at 15 mg/kg, iv administered each day for 5 days measured after 7 days post-last dose; type: organism-based; settings: in vivo, 120 h, time 5 day
[47] = system: Escherichia coli; assay: Antibacterial activity against Escherichia coli ATCC 25922 infected in BALB/c mouse assessed as bacterial count in kidney at 5 mg/kg, iv administered thrice at 1,3 and 5 hrs post-infection measured after 24 hrs post-last dose (Rvb ~ 1.8 x10^7 CFU/mL); type: functional; settings: time 29 hrs
[48] = Stability in 10 percent human serum assessed as compound remaining measured after 60 mins by RP-HPLC analysis; type: ADME, cell-free; settings: 10% human serum, read-out: Stability
[49] = system: Staphylococcus aureus; assay: Bactericidal activity against Staphylococcus aureus ATCC 25923 at MIC incubated for 45 mins by time kill assay; type: functional, organism-based
[50] = Toxicity in mouse assessed as change in serum AST level at 15 mg/kg, iv administered each day for 5 days measured after 7 days post-last dose; type: organism-based; settings: in vivo, 120 h, time 5 day
[51] = system: Mycolicibacterium smegmatis; assay: Antimycobacterial activity against Mycobacterium smegmatis assessed as reduction in bacterial growth at 2 times MIC pretreated for 1 hr followed by compound removal and subsequent culturing in fresh media without compound for 24 hrs measured after 4 days; type: functional, organism-based
[52] = Toxicity in mouse assessed as change in serum ALT level at 15 mg/kg, iv administered each day for 5 days measured after 7 days post-last dose; type: organism-based; settings: in vivo, 120 h, time 5 day

What does the source list for H-GRLGRLGRLGRLGRL-OH?
MBC [1]: 7.6 µM; MIC [2]: 15.2 µM; Activity [3]: inactive; Activity [4]: inactive; viability at 24 h, 100 µM [5]: > 80%; Activity [6]: inactive; MIC [7]: 15.2 µM; MIC [8]: 3.8 µM; HC50 at 40 min [9]: 2 mM; Activity [10]: 100%; Activity [11]: 100%; Activity [12]: inactive; MIC [13]: 5 µM; MIC [14]: 3.8 µM; Activity [15]: inactive; MIC [16]: 15.2 µM; Activity [17]: inactive; MIC [18]: 60.6 µM; MBC [19]: 15.2 µM; MIC [20]: 15.2 µM; viability at 24 h, 100 µM [21]: > 80%; MIC [22]: 15.2 µM; Activity [23]: inactive; Activity [24]: Non-toxic; Retention_time [25]: 16.17 min; Activity [26]: inactive; MIC [27]: 15.2 µM

What does the source list for H-GRLVGRLVGRLVGRLV-OH?
Activity [28]: Non-toxic; Activity [29]: inactive; fold change (FC) [30]: 2; MBC [1]: 1.8 µM; fold change (FC) [31]: 2; Survival [32]: 60%; Activity [33]: 1652 CFU/ml; Activity [34]: 1020 CFU/ml; MIC [2]: 1.8 µM; Activity [35]: 1864 CFU/ml; Activity [36]: Active; Activity [3]: Active; fold change (FC) [37]: 2; Activity [38]: Active; Emerged As Swiftest Molecule; Activity [4]: Active; viability at 24 h, 100 µM [5]: 75%; Activity [6]: Active; Activity [39]: Non-toxic; Activity [40]: ~800 CFU/ml; MIC [7]: 1.8 µM; Survival [41]: 100%; MIC [8]: 1.8 µM; HC50 at 40 min [9]: 2 mM; Activity [42]: Non-toxic; Activity [12]: Active; MIC [13]: 2.5 µM; MIC [14]: 1.8 µM; fold change (FC) [43]: 2; Activity [15]: Active; Activity [44]: Active; Emerged As Swiftest Molecule; MIC [16]: 1.8 µM; Activity [45]: Non-toxic; Activity [46]: Non-toxic; Activity [17]: Active; MIC [18]: 3.6 µM; MBC [19]: 1.8 µM; MIC [20]: 3.6 µM; viability at 24 h, 100 µM [21]: 75%; MIC [22]: 1.8 µM; Activity [47]: 2908 CFU/ml; Activity [23]: Active; remaining at 1 h [48]: ~80%; Activity [24]: Non-toxic; Retention_time [25]: 20.24 min; Activity [49]: Active; Activity [50]: Non-toxic; Activity [51]: Active; Activity [26]: Active; Activity [52]: Non-toxic; MIC [27]: 7.3 µM
